From the supplement of paper PMC10307832

How the values were obtained:
Assay in all cases: relative viability (nuclei count vs DMSO), 5 days (fraction); higher = more cells survive
[1] = compound: C[C@@H](C(=O)N[C@@H](C1CCCCC1)C(=O)N2CCC[C@H]2C(=O)N[C@@H]3[C@@H](CC4=CC=CC=C34)OCC#CC#CCO[C@@H]5CC6=CC=CC=C6[C@@H]5NC(=O)[C@@H]7CCCN7C(=O)[C@H](C8CCCCC8)NC(=O)[C@H](C)NC)NC [AZD5582] + COc1cc2c(Oc3ccc(NC(=O)C4(C(=O)Nc5ccc(F)cc5)CC4)cc3F)ccnc2cc1OCCCN1CCOCC1 [Foretinib] (partner 0.25 µM)
In short: (§1)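 For relative viability, nuclei counts in treated wells were divided by those in vehicle wells. Lung cancer cell lines had been pin-tool dosed in 1536-well plates the day after seeding and cultured for 5 days, then fixed and stained in one step (final 0.05% Triton X-100, 1% formaldehyde, 1 ug/ml Hoechst) and imaged at 4×. Doses were one drug alone or a fixed anchor-drug dose plus five library-drug doses (not always all listed) in √10 steps, and values are duplicate-plate medians.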

[2] = compound: C[C@@H](C(=O)N[C@@H](C1CCCCC1)C(=O)N2CCC[C@H]2C(=O)N[C@@H]3[C@@H](CC4=CC=CC=C34)OCC#CC#CCO[C@@H]5CC6=CC=CC=C6[C@@H]5NC(=O)[C@@H]7CCCN7C(=O)[C@H](C8CCCCC8)NC(=O)[C@H](C)NC)NC [AZD5582] + C[C@@H](Oc1cc(-c2cnn(C3CCNCC3)c2)cnc1N)c1c(Cl)ccc(F)c1Cl [Crizotinib] (partner 1 µM)
In short: as §1

[3] = compound: Cn1nnc2c(C(N)=O)ncn2c1=O [Temozolomide] + CC(=O)Nc1cccc(-n2c(=O)n(C3CC3)c(=O)c3c(Nc4ccc(I)cc4F)n(C)c(=O)c(C)c32)c1 [Trametinib] (partner 0.02 µM)
In short: as §1

[4] = compound: Cn1nnc2c(C(N)=O)ncn2c1=O [Temozolomide] + CS(=O)(=O)N1CCN(Cc2cc3nc(-c4cccc5[nH]ncc45)nc(N4CCOCC4)c3s2)CC1 [Pictilisib] (partner 1 µM)
In short: as §1

ChaGo-K-1
relative viability ([1]; first compound 0.001581 µM): 0.882
relative viability ([1]; first compound 0.005 µM): 0.9
relative viability ([1]; first compound 0.01581 µM): 0.83
relative viability ([1]; first compound 0.05 µM): 1.1
relative viability ([2]; first compound 0.001581 µM): 0.988
relative viability ([2]; first compound 0.005 µM): 1.1
relative viability ([2]; first compound 0.01581 µM): 1.13
relative viability ([2]; first compound 0.05 µM): 1.23
relative viability ([3]; first compound 0.2 µM): 0.959
relative viability ([3]; first compound 0.6325 µM): 0.87
relative viability ([3]; first compound 2 µM): 0.967
relative viability ([3]; first compound 6.325 µM): 0.9
relative viability ([3]; first compound 20 µM): 0.887
relative viability ([4]; first compound 0.2 µM): 0.784
relative viability ([4]; first compound 0.6325 µM): 0.904
relative viability ([4]; first compound 2 µM): 1.02
relative viability ([4]; first compound 6.325 µM): 0.635
relative viability ([4]; first compound 20 µM): 0.581

CAL-12T
relative viability ([1]; first compound 0.001581 µM): 0.821
relative viability ([1]; first compound 0.005 µM): 0.772
relative viability ([1]; first compound 0.01581 µM): 1.06
relative viability ([1]; first compound 0.05 µM): 0.732
relative viability ([2]; first compound 0.005 µM): 0.175
relative viability ([2]; first compound 0.01581 µM): 0.531
relative viability ([2]; first compound 0.05 µM): 0.192
relative viability ([3]; first compound 0.2 µM): 0.285
relative viability ([3]; first compound 0.6325 µM): 0.369
relative viability ([3]; first compound 2 µM): 0.337
relative viability ([3]; first compound 6.325 µM): 0.418
relative viability ([3]; first compound 20 µM): 0.268
relative viability ([4]; first compound 0.6325 µM): 0.434
relative viability ([4]; first compound 2 µM): 0.425
relative viability ([4]; first compound 6.325 µM): 0.334
relative viability ([4]; first compound 20 µM): 0.391

LOU-NH91
relative viability ([1]; first compound 0.001581 µM): 0.858
relative viability ([1]; first compound 0.005 µM): 0.861
relative viability ([1]; first compound 0.01581 µM): 0.934
relative viability ([1]; first compound 0.05 µM): 0.949
relative viability ([2]; first compound 0.001581 µM): 0.713
relative viability ([2]; first compound 0.005 µM): 0.746
relative viability ([2]; first compound 0.01581 µM): 0.729
relative viability ([2]; first compound 0.05 µM): 0.741
relative viability ([3]; first compound 0.2 µM): 0.731
relative viability ([3]; first compound 0.6325 µM): 0.806
relative viability ([3]; first compound 2 µM): 0.793
relative viability ([3]; first compound 6.325 µM): 0.806
relative viability ([3]; first compound 20 µM): 0.7
relative viability ([4]; first compound 0.2 µM): 0.512
relative viability ([4]; first compound 0.6325 µM): 0.547
relative viability ([4]; first compound 2 µM): 0.551
relative viability ([4]; first compound 6.325 µM): 0.523
relative viability ([4]; first compound 20 µM): 0.497

NCI-H1975
relative viability ([1]; first compound 0.001581 µM): 0.926
relative viability ([1]; first compound 0.005 µM): 1.17
relative viability ([1]; first compound 0.01581 µM): 1.06
relative viability ([1]; first compound 0.05 µM): 1.2
relative viability ([2]; first compound 0.001581 µM): 1.07
relative viability ([2]; first compound 0.005 µM): 1.1
relative viability ([2]; first compound 0.01581 µM): 0.938
relative viability ([2]; first compound 0.05 µM): 1.04
relative viability ([3]; first compound 0.2 µM): 0.339
relative viability ([3]; first compound 0.6325 µM): 0.31
relative viability ([3]; first compound 2 µM): 0.371
relative viability ([3]; first compound 6.325 µM): 0.373
relative viability ([3]; first compound 20 µM): 0.413
relative viability ([4]; first compound 0.2 µM): 0.272
relative viability ([4]; first compound 0.6325 µM): 0.308
relative viability ([4]; first compound 2 µM): 0.311
relative viability ([4]; first compound 6.325 µM): 0.302
relative viability ([4]; first compound 20 µM): 0.311

LC-2-ad
relative viability ([1]; first compound 0.001581 µM): 0.933
relative viability ([1]; first compound 0.005 µM): 1.16
relative viability ([1]; first compound 0.01581 µM): 0.829
relative viability ([1]; first compound 0.05 µM): 0.923
relative viability ([2]; first compound 0.001581 µM): 0.457
relative viability ([2]; first compound 0.005 µM): 0.454
relative viability ([2]; first compound 0.01581 µM): 0.384
relative viability ([2]; first compound 0.05 µM): 0.391
relative viability ([3]; first compound 0.2 µM): 0.935
relative viability ([3]; first compound 0.6325 µM): 0.926
relative viability ([3]; first compound 2 µM): 0.912
relative viability ([3]; first compound 6.325 µM): 0.895
relative viability ([3]; first compound 20 µM): 0.859
relative viability ([4]; first compound 0.2 µM): 0.554
relative viability ([4]; first compound 0.6325 µM): 0.546
relative viability ([4]; first compound 2 µM): 0.511
relative viability ([4]; first compound 6.325 µM): 0.593
relative viability ([4]; first compound 20 µM): 0.481

ABC-1
relative viability ([1]; first compound 0.001581 µM): 0.875
relative viability ([1]; first compound 0.005 µM): 1.11
relative viability ([1]; first compound 0.01581 µM): 1.05
relative viability ([1]; first compound 0.05 µM): 0.852
relative viability ([2]; first compound 0.001581 µM): 0.737
relative viability ([2]; first compound 0.005 µM): 0.863
relative viability ([2]; first compound 0.01581 µM): 1.04
relative viability ([2]; first compound 0.05 µM): 0.919
relative viability ([4]; first compound 0.2 µM): 0.726
relative viability ([4]; first compound 0.6325 µM): 0.8
relative viability ([4]; first compound 2 µM): 0.881
relative viability ([4]; first compound 6.325 µM): 0.609
relative viability ([4]; first compound 20 µM): 0.53

NCI-H2405
relative viability ([1]; first compound 0.001581 µM): 1
relative viability ([1]; first compound 0.005 µM): 1.07
relative viability ([1]; first compound 0.01581 µM): 0.987
relative viability ([1]; first compound 0.05 µM): 1.06
relative viability ([2]; first compound 0.001581 µM): 0.785
relative viability ([2]; first compound 0.005 µM): 0.957
relative viability ([2]; first compound 0.01581 µM): 0.804
relative viability ([2]; first compound 0.05 µM): 0.9
relative viability ([3]; first compound 0.2 µM): 0.585
relative viability ([3]; first compound 0.6325 µM): 0.699
relative viability ([3]; first compound 2 µM): 0.798
relative viability ([3]; first compound 6.325 µM): 0.569
relative viability ([3]; first compound 20 µM): 0.597
relative viability ([4]; first compound 0.2 µM): 0.392
relative viability ([4]; first compound 0.6325 µM): 0.434
relative viability ([4]; first compound 2 µM): 0.487
relative viability ([4]; first compound 6.325 µM): 0.338
relative viability ([4]; first compound 20 µM): 0.465

IA-LM
relative viability ([1]; first compound 0.001581 µM): 0.96
relative viability ([1]; first compound 0.005 µM): 0.938
relative viability ([1]; first compound 0.01581 µM): 1.21
relative viability ([1]; first compound 0.05 µM): 0.994
relative viability ([2]; first compound 0.001581 µM): 0.546
relative viability ([2]; first compound 0.005 µM): 0.63
relative viability ([2]; first compound 0.01581 µM): 0.818
relative viability ([2]; first compound 0.05 µM): 0.699
relative viability ([4]; first compound 0.2 µM): 0.279
relative viability ([4]; first compound 0.6325 µM): 0.376
relative viability ([4]; first compound 2 µM): 0.385
relative viability ([4]; first compound 6.325 µM): 0.266
relative viability ([4]; first compound 20 µM): 0.328

NCI-H1355
relative viability ([1]; first compound 0.001581 µM): 0.894
relative viability ([1]; first compound 0.005 µM): 0.881
relative viability ([1]; first compound 0.01581 µM): 0.938
relative viability ([1]; first compound 0.05 µM): 0.705
relative viability ([2]; first compound 0.001581 µM): 1.02
relative viability ([2]; first compound 0.005 µM): 0.857
relative viability ([2]; first compound 0.01581 µM): 0.982
relative viability ([2]; first compound 0.05 µM): 1.05
relative viability ([3]; first compound 0.2 µM): 0.436
relative viability ([3]; first compound 0.6325 µM): 0.464
relative viability ([3]; first compound 2 µM): 0.483
relative viability ([3]; first compound 6.325 µM): 0.452
relative viability ([3]; first compound 20 µM): 0.403
relative viability ([4]; first compound 0.2 µM): 0.433
relative viability ([4]; first compound 0.6325 µM): 0.46
relative viability ([4]; first compound 2 µM): 0.427
relative viability ([4]; first compound 6.325 µM): 0.38
relative viability ([4]; first compound 20 µM): 0.39
